Results published in US12172966B1, “2-(1H-imidazole-1-carbonyl)benzoic acid as an anticancer compound” (KING FAISAL UNIVERSITY, priority 2023, dated 2024).

Columns and labels:
[1] = system: human prostate cancer cells (PC3); assay: Assessment of cytotoxicity by SRB assay, prostate cancer cells; assay type: cell-based; conditions: for IC50: mean±SD
Text: (§1) The anticancer activity of the described synthesized compounds against highly aggressive androgen-independent metastatic human prostate cancer cells (PC3) and osteosarcoma (MG-63) cells. The human prostate cancer cells (PC3) and human osteosarcoma cells (MG-63) were obtained from Nawah Scientific Inc. (Mokatam, Cairo, Egypt) and cultured in DMEM (Dulbecco's modified eagle's medium), Gibco, USA, supplemented with fetal bovine serum (FBS) at a concentration of 10% and 100 U/mL of penicillin and streptomycin (PS). The Cells were incubated at 37° C. in a humidified environment that contained 5% CO2.
(§2) Cells were seeded in 96-well plates as aliquots of 100 μL cell suspension and incubated in a complete media for 24 h. afterward, cells were treated with 2-(1H-imidazole-1-carbonyl)benzoic acid at diverse concentrations ranging from 0.01 μM to 100 μM for 72 h. Then, cells were fixed at 4° C. for one hour with 150 μL of 10% trichloroacetic acid (TCA). After washing the cells five times with distilled water, […] of sulforhodamine (SRB) solution (0.4% w/v) was added and incubated for 10 min at room temperature in a dark place. Cells were washed with 1% acetic acid three times and allowed to air-dry. Then, 150 μL of Tris pH 10.5 (10 mM) was added, and the absorbance was measured at 540 nm using a BMG LABTECH®—FLUOstar Omega microplate reader (Ortenberg, Germany). Half maximal inhibitory concentrations (IC50) values were calculated for each experiment using GraphPad Prism 6 software. IC50 values were reported as mean±SD.
(§3) The inhibition was calculated using the following equation: Inhibition %=100−Average Viability

[2] = system: human osteosarcoma cells (MG-63); assay: Assessment of cytotoxicity by SRB assay, osteosarcoma cells; assay type: cell-based; conditions: for IC50: mean±SD
Text: as §1, §2, §3

[3] = Homo sapiens, MG-63 cells, 72 h

COc1cccc2c1C(=O)c1c(O)c3c(c(O)c1C2=O)C[C@@](O)(C(=O)CO)C[C@@H]3O[C@H]1C[C@H](N)[C@H](O)[C@H](C)O1 [DOX, Doxorubicin, reference compound]
IC50 ([1]; Homo sapiens, PC-3 cells, 72 h): 7.5 ± 0.45 µM | IC50 [2, 3]: 9.3 ± 1.1 µM

O=C(O)c1ccccc1C(=O)n1ccnc1 [2-(1H-imidazole-1-carbonyl)benzoic acid]
inhibition at 10 µg/mL ([1]; Homo sapiens, PC-3, 72 h, PC-3 cells, 10 μg/ml, 72 h): 93% | IC50 ([1]; Homo sapiens, PC-3 cells, 72 h): 2.67 ± 0.03 µM | Prostate cancer (PC-3) Inhibition % ([1]; PC-3 cells, 10 μg/ml, 72 h): 93.44% | IC50 values, prostate cancer cell line ([1]; PC-3 cells, bound stated in text for both cell lines): < 4 µM | antiproliferative activities against cancer cells (PC3) ([1]; result in words): excellent antiproliferative activities | inhibition at 10 µg/mL ([2]; Homo sapiens, MG-63 cells, 10 μg/ml, 72 h): 88.9% | inhibition at 100 µg/mL ([2]; Homo sapiens, MG-63 cells, 100 μg/ml, 72 h): 90.9% | IC50 [2, 3]: 3.55 ± 0.2 µM | IC50 values, osteosarcoma cell line ([2]; MG-63 cells, bound stated in text for both cell lines): < 4 µM | antiproliferative activities against osteosarcoma (MG-63) cells ([2]; result in words): excellent antiproliferative activities
